Legend:
[1] = pH of supplemented tea before and after heating; format: physicochemical; details: tea with 5.7 g per quart; for Initial pH: before heating
Protocol: Tea made from Lipton® instant tea mix was used as the basis for incorporation of samples. To prepare the tea, the following recipe was used: 2.69 g instant tea, 5.7 g GLCN or NAG (where applicable) then add water to one quart. Tea was prepared for sensory testing as follows:
Batch 2. Tea+glucosamine (pH 5-6) [GLCN from fungal biomass, see batch 2 Example 1]
Batch 3. Tea+NAG (pH 5-6) (N-Acetyl-D-glucosamine, Catalog # A-102-2, Ferro Pfanstiehl, Waukegan, Ill.)
Batch 4. Tea+glucosamine (pH 5-6) heated to 71° C. for 20 minutes
Batch 5. Tea+glucosamine heated (pH 5-6) to 90° C. for 20 seconds, flash cooled in ice water bath
Batch 6. Tea+glucosamine (pH 5-6) boiled on stove for 5 minutes, flash cooled in ice water bath
Batch 7. Tea+NAG (pH 5-6) heated to 71° C. for 20 minutes
Batch 8. Tea+NAG (pH 5-6) heated to 90° C. for 20 seconds, flash cooled in ice water bath
Batch 9. Tea+NAG (pH 5-6) boiled on stove for 5 minutes, flash cooled in ice water bath

[2] = Stability in simulated gastric fluid (SGF); format: in vitro ADME; details: 1 g in SGF with pepsin, pH about 1.2, 37° C., sampled at 0, 5, 15 and 60 minutes
Protocol: To test the availability of NAG in the stomach, a simulated stomach environment was constructed, and a known concentration of NAG was added to simulated gastric fluid (SGF) and maintained at conditions simulating the stomach. If NAG is degraded or derivatized in the stomach, the NAG concentration will decrease. If the concentration of NAG remains the same, it is likely that the NAG is available to the body.
SGF was prepared based on a 1995 United States Pharmacopoeia (USP) monograph. An artificial stomach environment was simulated according to generally accepted practice (see Consumers Union website, 101 Truman Ave., Yonkers, N.Y. 10703-1057). To prepare simulated gastric fluid, 2.0 g of NaCl and 3.2 g of pepsin were dissolved in 7.0 mL of hydrochloric acid (concentrated) and sufficient water to make a 1000 mL solution.
NAG samples were prepared as follows. […]
Before introduction of samples into the SGF, a sample of the SGF was analyzed as a blank, to determine the baseline. Upon addition of the NAG to the SGF, a sample was immediately analyzed to determine the concentration of NAG at time zero. After introduction of NAG into the SGF, samples were pulled and analyzed at 5 minutes, 15 minutes, and 60 minutes to provide a profile of NAG concentration in the simulated stomach, and analyzed for the concentration of NAG.

[3] = NAG recovery following heating, acid extraction method, HPLC; format: physicochemical; details: all foods and beverages of Table 14
Protocol: Food samples were homogenized prior to analysis. Where possible, samples were frozen or dried and ground. Baked goods were crumbled and mixed to produce a homogeneous material. Suitable blanks (samples with no added NAG) of each food type were analyzed to assess interferences. Mass changes between unheated ingredient mixtures and baked final products were tracked to permit accurate recovery calculations.
A food or beverage sample as described in the preceding examples containing 5 to 20 mg of N-acetylglucosamine (NAG) was dispersed in 25 g of 0.1 N HCl in a 50-mL polypropylene centrifuge tube and capped tightly. The sample was mixed for 30 seconds using a vortex mixer, then placed in a water bath at 37° C. The sample was removed from the water bath at 15-minute intervals and mixed for 30 seconds on a vortex mixer and then returned to the water bath. This cycle was repeated until the sample had been in the water bath for one hour. After heating, the sample was mixed for 30 seconds on a vortex mixer, then centrifuged for 10 minutes to separate the liquid and solid phases. Fats, oils or lipids in the sample formed a third layer at the top of the tube. […]
NAG recovery was determined using high performance liquid chromatography (HPLC) using a combination of refractive index and UV (195 nm) detection. […]

[4] = heated to 71° C. for 20 minutes
[5] = heated to 90° C. for 20 seconds

Initial pH [1]	pH after heating ([1]; boiled 5 minutes)	pH after heating [1, 4]	pH after heating [1, 5]	Loss of NAG in simulated gastric fluid [2]	amount of NAG recovered following heating, range over Table 14 samples [3]	Structure (SMILES)
5.09	4.87	5.13	5.00			Cl.N[C@H]1C(O)O[C@H](CO)[C@@H](O)[C@@H]1O (stereo partly shown) [Fungal GLCN, glucosamine hydrochloride, reference compound]
5.46	5.22	5.40	5.31	no significant loss of NAG	77%-100%	CC(=O)N[C@H]1C(O)O[C@H](CO)[C@@H](O)[C@@H]1O (stereo partly drawn) [NAG, N-Acetyl-D-glucosamine]
